≈ marks a conversion by molar mass, not a printed value. Values belong to the compound of their own block, whether it stands above or below them.
What was measured:
Test in all cases: ≥ marks a high value that may be exact or a test limit, other limits are often not marked, values filed in µg/mL are converted to µM
[1] = test system: Trichophyton rubrum ATCC 28189
[2] = test system: Candida albicans ATCC 24433
[3] = test system: Staphylococcus aureus
[4] = test system: Escherichia coli
[5] = test system: Candida parapsilosis ATCC 22019
[6] = test system: Pseudomonas aeruginosa ATCC 27853
[7] = test system: Candida tropicalis IOC 4560
[8] = test system: Escherichia coli SBS 363
[9] = test system: Micrococcus luteus A270
[10] = test system: Enterobacter cloacae beta-12
[11] = test system: Bacillus megaterium ATCC 10778
[12] = test system: Candida albicans MDM8
[13] = test system: Serratia marcescens ATCC 4112
[14] = test system: Escherichia coli ATCC 25922
[15] = test system: Corynebacterium glutamicum ATCC 13032
[16] = test system: Candida albicans ATCC 10231
[17] = test system: Aureobasidium pullulans
[18] = test system: Staphylococcus aureus ATCC 9144
[19] = test system: Pseudomonas aeruginosa PAO1
[20] = test system: Staphylococcus aureus ATCC 12600
[21] = test system: Staphylococcus aureus MR
[22] = test system: Acinetobacter baumannii
[23] = test system: Enterobacter cloacae
[24] = test system: Escherichia coli KpC+001812446
[25] = test system: Staphylococcus aureus ATCC 25923
[26] = test system: Klebsiella pneumoniae ATCC 13883
[27] = test system: Klebsiella pneumoniae KpC+001825971
[28] = test system: Escherichia coli BL21
[29] = test system: Pseudomonas aeruginosa PA14
[30] = test system: Escherichia coli ATCC 35218
[31] = test system: Escherichia coli ATCC 11775
[32] = test system: Escherichia coli ATCC 43827
[33] = test system: Escherichia coli ESBL
[34] = test system: Escherichia coli ESBL 4
[35] = test system: Staphylococcus aureus ATCC 43300
[36] = test system: Staphylococcus aureus ATCC 29213
[37] = test system: Salmonella enterica subsp. enterica serovar Typhimurium ATCC 14028
[38] = test system: Bacillus cereus ATCC 11778
[39] = test system: Listeria monocytogenes ATCC BAA-751
[40] = test system: Pseudomonas aeruginosa ATCC 9027
[41] = test system: Bacillus subtilis AB91021
[42] = test system: Staphylococcus aureus P1389
[43] = test system: Bacillus thuringiensis AB92037
[44] = test system: Staphylococcus epidermidis AB208187
[45] = test system: Escherichia coli AB94012
[46] = test system: Micrococcus luteus AB93113
[47] = test system: Staphylococcus aureus P1374
[48] = test system: Staphylococcus aureus AB208193
[49] = test system: Staphylococcus aureus P1381
[50] = test system: Staphylococcus epidermidis AB208188
[51] = test system: Staphylococcus aureus ATCC 6538

Structure (SMILES): CC[C@H](C)[C@H](NC(=O)[C@H](CC(C)C)NC(=O)[C@H](CCC(N)=O)NC(=O)[C@H](CO)NC(=O)[C@H](CCCN=C(N)N)NC(=O)[C@@H](N)CO)C(=O)N[C@H](C(=O)N[C@@H](Cc1cnc[nH]1)C(=O)N[C@@H](CCC(N)=O)C(=O)N[C@@H](CCCN=C(N)N)C(=O)N[C@@H](CC(C)C)C(=O)N[C@@H](Cc1ccccc1)C(N)=O)C(C)C [SRSQLIVHQRLF]
- MIC [1]: ≥ 270 µM
- MIC [2]: ≥ 270 µM
- MIC [3]: > 270 µM
- MIC [4]: > 270 µM
- MIC [5]: ≥ 270 µM

Structure (SMILES): CC(C)C[C@H](NC(=O)CN)C(=O)NCC(=O)N[C@@H](C)C(=O)N[C@@H](CC(C)C)C(=O)N[C@@H](Cc1c[nH]c2ccccc12)C(=O)N[C@@H](CC(N)=O)C(=O)N[C@H](C(=O)N[C@@H](C)C(=O)N[C@@H](CCCCN)C(=O)N[C@@H](CO)C(=O)N[C@H](C(=O)N[C@@H](Cc1ccccc1)C(N)=O)C(C)C)C(C)C [GLGALWNVAKSVF]
- MIC [6]: > 50 µM
- MIC [7]: 25 µM (≈ 34 µg/mL)
- MIC [8]: ≥ 50 µM
- MIC [9]: 0.8 µM (≈ 1.09 µg/mL)
- MIC [10]: ≥ 50 µM
- MIC [11]: 3.1 µM (≈ 4.22 µg/mL)
- MIC [12]: 25 µM (≈ 34 µg/mL)
- MIC [13]: 0.8 µM (≈ 1.09 µg/mL)

Structure (SMILES): CC(C)[C@H](NC(=O)[C@H](CCCCN)NC(=O)[C@H](C)NC(=O)[C@@H](NC(=O)[C@@H](NC(=O)[C@H](CCCN=C(N)N)NC(=O)[C@H](CCCN=C(N)N)NC(=O)[C@H](Cc1c[nH]c2ccccc12)NC(=O)[C@H](Cc1c[nH]c2ccccc12)NC(=O)CN)[C@@H](C)O)C(C)C)C(=O)N[C@@H](CCCN=C(N)N)C(=O)N[C@@H](C)C(N)=O [GWWRRTVAKVRA]
- MIC [6]: 6.3 µM (≈ 9.35 µg/mL)
- MIC [14]: 6.3 µM (≈ 9.35 µg/mL)
- MIC [15]: 0.8 µM (≈ 1.19 µg/mL)
- MIC [16]: 25 µM (≈ 37.1 µg/mL)
- MIC [17]: ≥ 50 µM
- MIC [18]: ≥ 50 µM

Structure (SMILES): CC[C@H](C)[C@H](NC(=O)[C@H](Cc1ccc(O)cc1)NC(=O)[C@H](CCC(N)=O)NC(=O)[C@H](CC(C)C)NC(=O)[C@H](C)NC(=O)[C@H](CCCCN)NC(=O)[C@H](CCCCN)NC(=O)[C@H](CCSC)NC(=O)[C@H](CCCCN)NC(=O)[C@@H](N)CCCCN)C(=O)N[C@@H](CCCCN)C(=O)N[C@@H](CC(C)C)C(=O)N[C@@H](CC(C)C)C(=O)N[C@@H](CCCCN)C(N)=O [KKMKKALQYIKLLK]
- MIC [6]: > 100 µM
- MIC [30]: 25 µM (≈ 43.3 µg/mL)
- MIC [31]: ≥ 100 µM
- MIC [14]: 50 µM (≈ 86.6 µg/mL)
- MIC [32]: 25 µM (≈ 43.3 µg/mL)
- MIC [33]: 25 µM (≈ 43.3 µg/mL)
- MIC [34]: ≥ 100 µM

Other lines, results leading:

- MIC [19]: 4 µM (≈ 6.54 µg/mL)
- MIC [20]: 4 µM (≈ 6.54 µg/mL)
- MIC [21]: 8 µM (≈ 13.1 µg/mL)
- MIC [14]: 4 µM (≈ 6.54 µg/mL)
- MIC [22]: ≥ 32 µM
- MIC [23]: ≥ 32 µM
- MIC [24]: 8 µM (≈ 13.1 µg/mL)
- MIC [25]: 8 µM (≈ 13.1 µg/mL)
- MIC [26]: ≥ 32 µM
- MIC [27]: ≥ 32 µM
- MIC [28]: 2 µM (≈ 3.27 µg/mL)
- MIC [29]: 4 µM (≈ 6.54 µg/mL)
Structure (SMILES): CC[C@H](C)[C@H](N)C(=O)N[C@@H](CC(N)=O)C(=O)N[C@@H](CC(C)C)C(=O)N[C@@H](CCCCN)C(=O)N[C@@H](CCCCN)C(=O)N[C@@H](CC(C)C)C(=O)N[C@@H](C)C(=O)N[C@@H](C)C(=O)N[C@@H](CCCN=C(N)N)C(=O)N[C@H](C(=O)N[C@@H](CCCCN)C(=O)N[C@@H](CCCCN)C(=O)N[C@@H](CCCCN)C(=O)N[C@H](C(N)=O)[C@@H](C)CC)[C@@H](C)CC [INLKKLAARIKKKI]

- MIC [35]: 250 µM (≈ 592 µg/mL)
- MIC [36]: 250 µM (≈ 592 µg/mL)
- MIC [14]: 62.5 µM (≈ 148 µg/mL)
- MIC [37]: 125 µM (≈ 296 µg/mL)
- MIC [25]: 62.5 µM (≈ 148 µg/mL)
- MIC [38]: ≥ 125 µM
- MIC [39]: ≥ 62.5 µM
- MIC [40]: 250 µM (≈ 592 µg/mL)
Structure (SMILES): CC[C@H](C)[C@H](NC(=O)CNC(=O)[C@H](CCCCN)NC(=O)[C@@H](NC(=O)[C@H](CC(C)C)NC(=O)[C@H](CCCCN)NC(=O)CNC(=O)[C@H](CC(C)C)NC(=O)CNC(=O)[C@H](CO)NC(=O)[C@H](CCCCN)NC(=O)[C@H](Cc1ccccc1)NC(=O)[C@@H](NC(=O)[C@H](CCCN=C(N)N)NC(=O)[C@H](CCCCN)NC(=O)[C@H](CC(C)C)NC(=O)CN)[C@@H](C)CC)C(C)C)C(=O)N[C@@H](CO)C(=O)N[C@@H](C)C(=O)N[C@@H](Cc1cnc[nH]1)C(=O)N[C@H](C(=O)N[C@@H](C)C(=O)N[C@@H](CO)C(=O)O)C(C)C [GLKRIFKSGLGKLVKGISAHVAS]

- MIC [41]: 3 µM (≈ 6.21 µg/mL)
- MIC [42]: 1.5 µM (≈ 3.1 µg/mL)
- MIC [43]: 1.5 µM (≈ 3.1 µg/mL)
- MIC [44]: 1.5 µM (≈ 3.1 µg/mL)
- MIC [45]: ≥ 48.3 µM
- MIC [46]: ≥ 48.3 µM
- MIC [47]: 3 µM (≈ 6.21 µg/mL)
- MIC [14]: 12.1 µM (≈ 25 µg/mL)
- MIC [48]: 3 µM (≈ 6.21 µg/mL)
- MIC [49]: 3 µM (≈ 6.21 µg/mL)
- MIC [25]: 3 µM (≈ 6.21 µg/mL)
- MIC [50]: 1.5 µM (≈ 3.1 µg/mL)
- MIC [40]: 12.1 µM (≈ 25 µg/mL)
- MIC [51]: 1.5 µM (≈ 3.1 µg/mL)
Structure (SMILES): CC[C@H](C)[C@H](NC(=O)[C@H](CCCCN)NC(=O)[C@@H](NC(=O)[C@H](C)NC(=O)[C@H](CC(C)C)NC(=O)[C@H](CCCCN)NC(=O)[C@H](Cc1ccccc1)NC(=O)[C@H](CC(C)C)NC(=O)[C@H](C)NC(=O)CNC(=O)[C@H](Cc1ccccc1)NC(=O)[C@@H](N)Cc1ccccc1)[C@@H](C)O)C(=O)N[C@H](C(=O)N1CCC[C@H]1C(=O)N[C@@H](CO)C(=O)N[C@@H](CC(C)C)C(=O)N[C@@H](Cc1ccccc1)C(=O)N[C@@H](CCCN=C(N)N)C(=O)O)[C@@H](C)CC [FFGALFKLATKIIPSLFR]
